One may read the Ki as a measure of affinity in units of concentration, obtained from inhibition or displacement.

Among the data in US5190922A (priority 1991, dated 1993) are Ki values, retold here.

Like-named read-outs stand apart in the source and are kept apart here. Non-standard residues stand in square brackets, D forms with d. Residues, ends and D or L forms follow the SMILES beside them. ξ: configuration not given here. *: point of attachment. X10 = N=C(N)NCCCCN(C[C@H](CC1CCCCC1)N*)C(=O)Cc1ccccc1; Butanoyl(3S-Ph) = C[C@@H](CC(=O)*)c1ccccc1; X6 = N#CC(Cc1ccccc1)(Cc1ccccc1)C(=O)*; NHCH2(2-pyridyl) = c1ccc(CN*)nc1; NMeF = CN[C@@H](Cc1ccccc1)C(=O)O; PhLac = O=C(O)[C@@H](O)Cc1ccccc1; X11 = O=[N+]([O-])c1cccc(CN*)c1; Cha = N[C@@H](CC1CCCCC1)C(=O)O; dCha = N[C@H](CC1CCCCC1)C(=O)O; Phe(ol) = N[C@H](CO)Cc1ccccc1; X9 = CC[C@H](C(=O)*)c1ccccc1; X2 = N#CC(Cc1ccccc1)C(=O)*; ξCha = NC(CC1CCCCC1)C(=O)O; 4Amb = NCc1ccc(C(=O)O)cc1; X8 = c1ccc(C2(CN*)CC2)cc1; X7 = O=C(C(CO)c1ccccc1)*; NH(CH2)5NH2 = NCCCCCN*; NHBn = c1ccc(CN*)cc1; Bz = O=C(c1ccccc1)*; OBn = c1ccc(CO*)cc1; X5 = c1ccc(NN*)cc1; X3 = N=C(N)NCCCN*

The test deals with T1, C5a Receptor (Homo sapiens, UniProt P21730).
T1 construct: 2.5-25 μg/mL of purified PMNL membrane fragments; from tissue; host or cells: polymorphonuclear leukocyte (PMNL) membrane fragments
T1 sequence (P21730 1-350): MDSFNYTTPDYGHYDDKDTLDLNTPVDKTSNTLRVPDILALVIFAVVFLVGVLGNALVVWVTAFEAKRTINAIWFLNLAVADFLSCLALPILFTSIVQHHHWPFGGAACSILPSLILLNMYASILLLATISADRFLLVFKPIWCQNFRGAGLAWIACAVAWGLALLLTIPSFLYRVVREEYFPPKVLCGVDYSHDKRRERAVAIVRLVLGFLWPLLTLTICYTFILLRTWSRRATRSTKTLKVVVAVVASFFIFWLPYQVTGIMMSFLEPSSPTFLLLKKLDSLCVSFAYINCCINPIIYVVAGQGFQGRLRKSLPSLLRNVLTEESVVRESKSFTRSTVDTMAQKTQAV
Put plainly: Anaphylatoxin receptor binding Ki determination (inhibition of 125I-C5a binding to PMNL membrane fragments). How it is done: Specific inhibition of C5 a binding activity of representative compounds of the present invention was measured using 0.03-1 nM ^125 I-C5 a with 2.5-25 μg/mL of purified PMNL membrane fragments (Borregaard, N.; Heiple, J. M.; Simons, E. R.; and Clark, R. A. J. Cell. Biol. 1983, 97, 52-61.). Free and membrane-bound ligand were separated by filtration.

[1] abbreviates: 0.03-1 nM 125I-C5a, 2.5-25 μg/mL purified PMNL membrane fragments, filtration, read-out: Ki (In vitro C5a Receptor Binding Potency).

Consider `N=C(N)NCCC[C@@H](NC(=O)[C@H](CC1CCCCC1)NC(=O)[C@@H](CC1CCCCC1)NC(=O)[C@@H]1CCCN1C(=O)[C@H](CCCCN)NC(=O)C(Cc1ccccc1)C(=O)O)C(=O)O` (mixture of isomers) [Example 149, {(R/S)-(2-Carboxyl)-3-phenylpropionyl}-Lysyl-Prolyl-{(2R)-2-Amino-3-cyclohexylpropanoyl}-{(2S)-2-Amino-3-cyclohexylpropanoyl}-DArginyl-OH], for which the Ki under setting [1] came to 22 nM.

On to `CC[C@H](C(=O)N[C@@H](CCCCN)C(=O)N1CCC[C@H]1C(=O)N[C@H](CC1CCCCC1)C(=O)N[C@@H](CC1CCCCC1)C(=O)N[C@H](CCCNC(=N)N)C(=O)O)c1ccccc1` [Example 2, (S)-(+)-2-phenylbutyryl-Lysyl-Prolyl-{(2R)-2-Amino-3-cyclohexylpropanoyl}-{(2S)-2-Amino-3-cyclohexylpropanoyl}-DArginyl-OH] (X9-KP[dCha][Cha][dR]-OH), for which, under setting [1], the Ki was found to be 14 nM.

Turning to `N=C(N)NCCC[C@@H](NC(=O)[C@H](Cc1ccccc1)NC(=O)[C@@H](CC1CCCCC1)NC(=O)[C@@H]1CCCN1C(=O)[C@H](CCCCN)NC(=O)C(CO)c1ccccc1)C(=O)O` (stereo partly drawn) [Example 8, {(2R/S)-2-Hydroxymethyl-2-phenylacetyl}-Lysyl-Prolyl-{(2R)-2-Amino-3-cyclohexylpropanoyl}-Phenylalanyl-DArginyl-OH] (X7-KP[dCha]F[dR]-OH), under setting [1], the Ki was 6200 nM.

Consider `CN[C@@H](Cc1ccccc1)C(=O)N[C@@H](CCCCN)C(=O)N1CCC[C@H]1C(=O)N[C@H](CC1CCCCC1)C(=O)N[C@@H](CC1CCCCC1)C(=O)NCCCCCN` [Example 30, (N-Methyl)Phenylalanyl-Lysyl-Prolyl-{(2R)-2-Amino-3-cyclohexylpropanoyl}-{(2S)-2-Amino-3-cyclohexylpropanoyl}-N-(5-Aminopentyl)amide] (H-[NMeF]KP[dCha][Cha]-{NH(CH2)5NH2}), for which the inhibition constant (Ki) under setting [1] was found to be 2200 nM.

Take `CN[C@@H](Cc1ccccc1)C(=O)N[C@@H](CCCCN)C(=O)N1CCC[C@H]1C(=O)N[C@H](CC1CCCCC1)C(=O)N[C@@H](CC1CCCCC1)C(=O)NCCCNC(=N)N` [Example 55, (N-Methyl)Phenylalanyl-Lysyl-Prolyl-{(2R)-2-Amino-3-cyclohexylpropanoyl}-{(2S)-2-Amino-3-cyclohexylpropanoyl}-N-(3-Guanidinopropyl)amide] (H-[NMeF]KP[dCha][Cha]-X3): the inhibition constant Ki under setting [1] was 7 nM.

For `C[C@@H](CC(=O)N[C@@H](CCCCN)C(=O)N1CCC[C@H]1C(=O)N[C@H](CC1CCCCC1)C(=O)N[C@@H](CC1CCCCC1)C(=O)N[C@H](CCCNC(=N)N)C(=O)O)c1ccccc1` [Example 57, {S(+)-3-Phenylbutyryl}-Lysyl-Prolyl-{(2R)-2-Amino-3-cyclohexylpropanoyl}-{(2S)-2-Amino-3-cyclohexylpropanoyl}-DArginyl-OH] ({Butanoyl(3S-Ph)}-KP[dCha][Cha][dR]-OH), the Ki under setting [1] worked out at 27 nM.

Consider `CN[C@@H](Cc1ccccc1)C(=O)N[C@@H](CCCCN)C(=O)N1CCC[C@H]1C(=O)N[C@H](CC1CCCCC1)C(=O)N[C@@H](CC1CCCCC1)CN(CCCCNC(=N)N)C(=O)Cc1ccccc1` [Example 78, N-(4-Guanidinobutyl)-N-[(N-Methyl)Phenylalanyl-Lysyl-Prolyl-{(2R)-2-Amino-3-cyclohexylpropanoyl}-{(2S)-2-Amino-3-cyclohexylpropyl}]-N-Phenylacetamide] (H-[NMeF]KP[dCha]-X10), for which the inhibition constant (Ki) worked out at 680 nM.

The compound `N=C(N)NCCC[C@@H](NC(=O)[C@H](CC1CCCCC1)NC(=O)[C@@H](CC1CCCCC1)NC(=O)[C@@H]1CCCN1C(=O)[C@H](CCCCN)NC(=O)c1ccccc1)C(=O)O` [Example 82, N-Benzoyl-Lysyl-Prolyl-{(2R)-2-Amino-3-cyclohexylpropanoyl}-{(2S)-2-Amino-3-cyclohexylpropanoyl}-DArginyl-OH] (Bz-KP[dCha][Cha][dR]-OH) registered an inhibitory constant (Ki) of 24000 nM.

For `N=C(N)NCCC[C@@H](NC(=O)[C@H](Cc1ccccc1)NC(=O)[C@@H](CC1CCCCC1)NC(=O)[C@@H]1CCCN1C(=O)[C@H](CCCCN)NC(=O)[C@@H](O)Cc1ccccc1)C(=O)O` [Example 84, {(3S)-Phenyllactyl)-Lysyl-Prolyl-{(2R)-2-Amino-3-cyclohexylpropanoyl}-Phenylalanyl-DArginyl-OH] (H-[PhLac]KP[dCha]F[dR]-OH), the Ki under setting [1] amounted to 62 nM.

In the case of `N#CC(Cc1ccccc1)(Cc1ccccc1)C(=O)N[C@@H](CCCCN)C(=O)N1CCC[C@H]1C(=O)N[C@H](CC1CCCCC1)C(=O)N[C@@H](Cc1ccccc1)C(=O)N[C@H](CCCNC(=N)N)C(=O)O` [Example 88, {2-Benzyl-2-cyano-3-phenylpropionyl}-Lysyl-Prolyl-{(2R)-2-Amino-3-cyclohexylpropanoyl}-Phenylalanyl-DArginyl-OH] (X6-KP[dCha]F[dR]-OH), the Ki under setting [1] turned out to be 670 nM.

For the compound `CN[C@@H](Cc1ccccc1)C(=O)N[C@@H](CCCCN)C(=O)N1CCC[C@H]1C(=O)N[C@H](CC1CCCCC1)C(=O)N[C@@H](CC1CCCCC1)C(=O)NCc1ccccc1` [Example 96, (N-Methyl)Phenylalanyl-Lysyl-Prolyl-{(2R)-2-Amino-3-cyclohexylpropanoyl}-{(2S)-2-Amino-3-cyclohexylpropanoyl}-N-Benzylamide] (H-[NMeF]KP[dCha][Cha]-NHBn), the Ki under setting [1] is 90 nM.

`N#CC(Cc1ccccc1)C(=O)N[C@@H](CCCCN)C(=O)N1CCC[C@H]1C(=O)N[C@H](CC1CCCCC1)C(=O)N[C@@H](Cc1ccccc1)C(=O)N[C@H](CCCNC(=N)N)C(=O)O` (stereo partly drawn) [Example 99, {(2RS)-2-Cyano-3-phenylpropionyl}-Lysyl-Prolyl-{(2R)-2-Amino-3-cyclohexylpropanoyl}-Phenylalanyl-DArginyl-OH] (X2-KP[dCha]F[dR]-OH) gave a Ki of 120 nM.

`CN[C@@H](Cc1ccccc1)C(=O)N[C@@H](CCCCN)C(=O)N1CCC[C@H]1C(=O)N[C@H](CC1CCCCC1)C(=O)N[C@@H](Cc1ccccc1)C(=O)NCC1(c2ccccc2)CC1` [Example 100, (N-Methyl)Phenylalanyl-Lysyl-Prolyl-{(2R)-2-Amino-3-cyclohexylpropanoyl}-Phenylalanyl-N-{(1-Phenyl)cyclopropylmethyl}amide] (H-[NMeF]KP[dCha]F-X8) gave a Ki of 91 nM.

On to `CN[C@@H](Cc1ccccc1)C(=O)N[C@@H](CCCCN)C(=O)N1CCC[C@H]1C(=O)N[C@H](CC1CCCCC1)C(=O)N[C@@H](CC1CCCCC1)C(=O)NCc1cccc([N+](=O)[O-])c1` [Example 114, (N-Methyl)Phenylalanyl-Lysyl-Prolyl-{(2R)-2-Amino-3-cyclohexylpropanoyl}-{(2S)-2-Amino-3-cyclohexylpropanoyl}-N-(3-Nitrobenzyl)amide] (H-[NMeF]KP[dCha][Cha]-X11), for which, under setting [1], the inhibitory constant (Ki) worked out at 130 nM.

On to `CN[C@@H](Cc1ccccc1)C(=O)N[C@@H](CCCCN)C(=O)N1CCC[C@H]1C(=O)N[C@H](CC1CCCCC1)C(=O)N1CCN(Cc2ccccc2)CC1` [Example 117], for which the inhibition constant Ki under setting [1] was 110000 nM.

Consider `CN[C@@H](Cc1ccccc1)C(=O)N[C@@H](CCCCN)C(=O)N1CCC[C@H]1C(=O)N[C@H](CC1CCCCC1)C(=O)N[C@H](CO)Cc1ccccc1` [Example 119, (N-Methyl)Phenylalanyl-Lysyl-Prolyl-{(2R)-2-Amino-3-cyclohexylpropanoyl}-{(S)-(-)-2-Amino-3-phenyl-1-propanol}] (H-[NMeF]KP[dCha][Phe(ol)]), for which the inhibitory constant (Ki) under setting [1] amounted to 780 nM.

Turning to `CN[C@@H](Cc1ccccc1)C(=O)N[C@@H](CCCCN)C(=O)N1CCC[C@H]1C(=O)N[C@H](CC1CCCCC1)C(=O)NC(CC1CCCCC1)C(=O)OCc1ccccc1` (stereo partly drawn) [Example 159, (N-Methyl)Phenylalanyl-Lysyl-Prolyl-{(2R)-2-Amino-3-cyclohexylpropanoyl}-{(2R/S)-2-Amino-3-cyclohexylpropanoyl}O-Benzyl] (H-[NMeF]KP[dCha][ξCha]-OBn), the Ki under setting [1] was found to be 980 nM.

As for `CN[C@@H](Cc1ccccc1)C(=O)N[C@@H](CCCCN)C(=O)N1CCC[C@H]1C(=O)N[C@H](CC1CCCCC1)C(=O)N[C@@H](CC1CCCCC1)C(=O)NNc1ccccc1` [Example 163, (N-Methyl)Phenylalanyl-Lysyl-Prolyl-{(2R)-2-Amino-3-cyclohexylpropanoyl}-{(2S)-2-Amino-3-cyclohexylpropanoyl}-N-(N'-Phenyl)hydrazide] (H-[NMeF]KP[dCha][Cha]-X5), the inhibitory constant (Ki) was 140 nM.

`CN[C@@H](Cc1ccccc1)C(=O)N[C@@H](CCCCN)C(=O)N1CCC[C@H]1C(=O)N[C@H](CC1CCCCC1)C(=O)N[C@@H](Cc1ccccc1)C(=O)NCc1ccc(C(=O)O)cc1` [Example 177, (N-Methyl)Phenylalanyl-Lysyl-Prolyl-{(2R)-2-Amino-3-cyclohexylpropanoyl}-Phenylalanyl-N-(4-Carboxybenzyl)amide] (H-[NMeF]KP[dCha]F[4Amb]-OH) had a Ki of 38700 nM.

As for `CN[C@@H](Cc1ccccc1)C(=O)N[C@@H](CCCCN)C(=O)N1CCC[C@H]1C(=O)N[C@H](CCCNC(=N)N)C(=O)N[C@@H](Cc1ccccc1)C(=O)NCc1ccccn1` [Example 199, (N-Methyl)Phenylalanyl-Lysyl-Prolyl-DArginyl-Phenylalanyl-N-(2-Picolyl)amide] (H-[NMeF]KP[dR]F-{NHCH2(2-pyridyl)}), the Ki under setting [1] turned out to be 8400 nM.
